One molecule from publication PMC10489073 (Molecules, 2023) can be followed below.

One experiment concerns B16F10 cells. Kind of experiment: Survival time in mice bearing B16F10 cells. To be noted: for median survival time (MST): twice a week for two weeks, vehicle group 16 days. It is filed as in vivo, C57BL/6 mice. On the procedure:
The animal experiments were conducted under the guidelines of the “Regulations for the Administration of Affairs Concerning Experimental Animals” (revised 2017, State Council No. 676). Female C57/B6 mice at 5 to 6 weeks were implanted via intraperitoneal (ip) injection with 5.0 × 10^6 B16F10 cells per individual and randomly assigned into control groups and treatment groups. Seven days after inoculation, mice from the control group were treated orally with DMSO in a vehicle, whereas the compound group mice were treated with specified concentrations of compounds by oral administration twice a week for two weeks. The survival percentage of the mice in each group was recorded and plotted. The anti-tumor activity of the drug was evaluated by measuring the median survival time (MST) for each group.

A further experiment has as its target T1, Human CD13 (Homo sapiens, UniProt P15144).
T1 construct: purchased R&D systems
Kind of experiment: CD13 inhibition assay (recombinant human aminopeptidase, L-leucine-p-nitroanilide). It is filed as biochemical. To be noted: mean ± SD, n ≥ 3; read-out: IC50 toward Human CD13. On the procedure: L-leucine-p-nitroanilide can be degraded by recombinant human aminopeptidase (R&D systems) or procine aminopeptidase (Sigma Chemical Co., St. Louis, MO, USA) and produce light absorption at 405 nm. The CD13 inhibitory activity of synthetic compounds was identified according to the degree of degradation of L-leucine-p-nitroanilide. L-leucine-p-nitroanilide was dissolved in DMSO and mixed with tested compounds in a transparent 96-well plate; then, aminopeptidase was added using phosphate solution (pH 7.2) as the assay buffer. After incubation at 37 °C for 30 min, the absorption was detected under a 405 nm wavelength via Tecan Spark multimode microplate.

The subject of experiment [1] is H22 pulmonary metastasis tumor model. In words: In vivo H22 pulmonary metastasis model. Details: species or system Kunming mice. To be noted: p.o., BIW, 2 weeks, vehicle group 71.5. On the procedure: The animal experiments were conducted under the guidelines of the “Regulations for the Administration of Affairs Concerning Experimental Animals” (revised 2017, State Council No. 676). H22 cells (3 × 10^6 cells/100 μL per mouse) were intravenously (i.v.) inoculated via the tail vein of Kunming mice aged 6 weeks on day 0. To ensure the growth of pulmonary metastasis before the drug treatment, the tumor was allowed to develop for 7 days. On day 8, the randomly grouped mice were treated with ixazomib (0.008 mmol/kg, p.o., BIW) or BC-05 (0.006, 0.008, and 0.01 mmol/kg, p.o., BIW) for consecutive 2 weeks. On day […], the mice were weighed and sacrificed, and the lungs were removed and weighed. After being fixed in the Bouin stationary solution for one day, the lung metastasized nodes of each mouse were numbered.

In experiment [2] the test system is macrophage phagocytic activity (MPA) of the reticular endothelial system. In words: Macrophage phagocytosis by carbon clearance test. It is filed as in vivo, Kunming mice. To be noted: twice a week for two weeks; for Carbon Clearance Index (K): Ctrl 0.057 ± 0.0061; for Phagocytosis Index (α): Ctrl 5.36 ± 0.19. On the procedure:
The animal experiments were conducted under the guidelines of the “Regulations for the Administration of Affairs Concerning Experimental Animals” (revised 2017, State Council No. 676). Kunming mice were randomly divided into control groups and treatment groups. After oral administration of test compounds twice a week for two weeks, the mice were injected with carbon ink suspension (Indian Ink, Camel) (100 μL/10 g of body weight) via the tail vein. Two and ten minutes after the injection of carbon suspension, the blood samples were collected from a retro-orbital vein. A total of 25 μL of a blood sample was directly added into 2 mL of 0.1% sodium carbonate solution. The absorbance of the sample was measured at 600 nm using a UV-visible spectrophotometer. The K value was calculated by the formula Log (OD2) − Log (OD10)/(T2 − T1), where OD2 and OD10 were the absorbance of blood at 2 and 10 min, respectively; T2 is the last time point of blood collection; T1 is the first time point of blood collection. The α value was calculated by the formula (k^1/3 × body weight)/(liver weight + spleen weight).

The target in experiment [3] is T2, chymotrypsin-like (CT-L) activity of the 20S proteasome (Homo sapiens, UniProt P20618+P28074).
T2 construct: purchased R&D systems, Minneapolis, MN, USA
Kind of experiment: 20S proteasome inhibition assay (Proteasome-Glo Chymotrypsin-Like). It is filed as biochemical. To be noted: n ≥ 3, SD <20% of the mean, read-out: IC50 toward Chymotrypsin-like (CT-L). On the procedure:
The 20S proteasome inhibition assay was performed using the Proteasome-Glo™ Chymotrypsin-Like Assay kit (Promega, Alexandria, NSW, Australia). Suc-LLVY-aminoluciferin is a substate that can be cleaved by the 20S proteasome, release the […] (aminoluciferin) and allow the luciferase reaction to produce light. Gradient concentration of tested compounds and the purified 20S proteasome enzyme (R&D systems, Minneapolis, MN, USA) were successively added into a transparent 96-well plate and mixed thoroughly. Then, 50 µL of a […] reagent was added. Gently mix contents with a plate shaker at 300 to 500 rpm for 30 s. Incubate at room temperature for an hour. The luminescence was recorded via the Tecan Spark multimode microplate.

A further experiment has as its system MM1.S cells. Kind of experiment: Cell apoptosis assay (Annexin V-FITC/PI flow cytometry). It is filed as cell-based. To be noted: 48 h. On the procedure:
For the cell apoptosis assay, MM1.S cells were plated in 12-well plates with a density of 6 × 10^5 cells per well and treated with BC-05 (1, 2, and 4 μM), ixazomib (10 nM) or a vehicle (0.5% DMSO) for 48 h after 12 h fixation. Then, cells were harvested, washed with a cold PBS buffer, and resuspended in 500 μL of an annexin V binding buffer. After being stained with 5 μL of Annexin V-FITC and 5 μL of propidium iodide, the cells were detected by a flow cytometer (Beckman Coulter Inc., Sharon Hill, PA, USA).

The IC50 is the concentration needed to halve the response being measured.

T1 sequence (P15144 whole entry): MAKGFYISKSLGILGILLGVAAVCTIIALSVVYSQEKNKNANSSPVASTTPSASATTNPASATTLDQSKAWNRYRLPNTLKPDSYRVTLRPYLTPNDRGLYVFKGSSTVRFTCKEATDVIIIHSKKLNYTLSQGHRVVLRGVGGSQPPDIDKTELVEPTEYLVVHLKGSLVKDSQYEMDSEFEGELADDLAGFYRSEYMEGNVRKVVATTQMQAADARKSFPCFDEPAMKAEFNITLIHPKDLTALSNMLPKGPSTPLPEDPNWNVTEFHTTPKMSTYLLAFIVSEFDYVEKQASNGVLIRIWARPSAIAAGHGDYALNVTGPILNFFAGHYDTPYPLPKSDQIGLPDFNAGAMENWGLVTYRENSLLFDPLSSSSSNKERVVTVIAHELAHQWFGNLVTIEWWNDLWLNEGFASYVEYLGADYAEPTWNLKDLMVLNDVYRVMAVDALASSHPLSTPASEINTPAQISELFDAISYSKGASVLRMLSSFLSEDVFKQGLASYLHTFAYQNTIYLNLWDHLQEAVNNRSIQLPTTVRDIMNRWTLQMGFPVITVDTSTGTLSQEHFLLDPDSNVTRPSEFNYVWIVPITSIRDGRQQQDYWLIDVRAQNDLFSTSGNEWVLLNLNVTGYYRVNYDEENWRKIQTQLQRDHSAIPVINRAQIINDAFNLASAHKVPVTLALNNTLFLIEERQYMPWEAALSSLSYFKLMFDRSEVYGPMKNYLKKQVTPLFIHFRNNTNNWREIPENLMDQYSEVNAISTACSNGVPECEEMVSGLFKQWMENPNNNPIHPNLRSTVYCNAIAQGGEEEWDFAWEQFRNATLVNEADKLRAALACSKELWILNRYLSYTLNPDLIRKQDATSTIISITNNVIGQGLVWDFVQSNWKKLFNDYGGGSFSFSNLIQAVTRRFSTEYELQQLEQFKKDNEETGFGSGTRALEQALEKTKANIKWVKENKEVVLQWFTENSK

On to `CC(C)C[C@H](NC(=O)[C@@H](O)[C@H](N)Cc1ccccc1)B1OC(=O)C(CC(=O)O)(CC(=O)O)O1` [BC-05, 2,2′-(2-((R)-1-((2S,3R)-3-amino-2-hydroxy-4-phenylbutanamido)-3-methylbutyl)-5-oxo-1,3,2-dioxaborolane-4,4-diyl)diacetic acid], for which the “MST increase compared to the vehicle group” value in the experiment on B16F10 cells (0.008 mmol/kg oral) is 1.4 fold; in the experiment on B16F10 cells (0.012 mmol/kg oral), 1.6 fold. The “median survival time (MST)” value in the experiment with B16F10 cells (0.008 mmol/kg oral) stood at 22 days; with B16F10 cells (0.012 mmol/kg oral) it was 25 days. Also, the IC50 at Human CD13 came to 130 ± 10 nM; in experiment [3], 1390 nM. The “number of H22 pulmonary nodes” value worked out at 17.3 in experiment [1] (0.006 mmol/kg), 15.2 in experiment [1] (0.008 mmol/kg) and 12.7 in experiment [1] (0.01 mmol/kg). For the same molecule, the figures for the “Carbon Clearance Index (K)” value in experiment [2] (0.006 mmol/kg oral) and in experiment [2] (0.008 mmol/kg oral) were 0.066 ± 0.0077 and 0.076 ± 0.0016, respectively. For the same molecule, the entries for the “Phagocytosis Index (α)” value in experiment [2] (0.006 mmol/kg oral) and in experiment [2] (0.008 mmol/kg oral) were 6.60 ± 0.26 and 6.61 ± 0.05, respectively. In addition, the cell apoptosis is on record as 12.4% in the experiment on MM1.S cells (1 µM), 73.1% with MM1.S cells (2 µM) and 88.0% in the experiment with MM1.S cells (4 µM).
